For series [1], the target named is T1, Neuropeptide Y receptor type 4 (Homo sapiens, UniProt P50391). Nature of the series: Agonist potency at human Y4 receptor expressed in HEK293T-NlucN-mGSi/Y4R-NlucC cells assessed as intrinsic activity by miniGsi protein recruitment assay relative to hPP. Type of series: cell-based. Particulars: filed as agonist.
Series [2] deals with T1, Neuropeptide Y receptor type 4. Kind of series: Agonist potency at human Y4 receptor expressed in HEK293T-NlucN-mGSi/Y4R-NlucC cells by miniGsi protein recruitment assay. Type of series: cell-based.
For series [3], the target named is T2, Neuropeptide Y receptor type 2 (Homo sapiens, UniProt P49146).
T2 sequence (P49146 whole entry): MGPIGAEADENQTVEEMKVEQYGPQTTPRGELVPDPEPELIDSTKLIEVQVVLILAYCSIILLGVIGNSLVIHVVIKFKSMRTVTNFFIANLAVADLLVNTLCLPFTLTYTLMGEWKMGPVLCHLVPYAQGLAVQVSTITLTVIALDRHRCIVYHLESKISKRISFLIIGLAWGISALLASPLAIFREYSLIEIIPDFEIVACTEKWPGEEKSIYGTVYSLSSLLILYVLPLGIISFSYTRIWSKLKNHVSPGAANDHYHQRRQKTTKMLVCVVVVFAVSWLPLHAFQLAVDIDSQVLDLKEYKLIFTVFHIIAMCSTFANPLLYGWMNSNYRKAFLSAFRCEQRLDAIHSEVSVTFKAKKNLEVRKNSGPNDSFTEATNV
Kind of series: Displacement of [3H]propionyl-pNPY from human Y2 receptor expressed in CHO cells measured after 90 mins by MicroBeta plate counter based competition binding assay. Type of series: cell-based. Background: Displacement assays read how much labelled ligand stays bound in the presence of the test substance.

Series [4] can be described thus: Stability in human plasma assessed as rate constant by measuring loss of intact peptide at 100 uM measured upto 24 hrs at 37 degC. Type of series: ADME, cell-free.
A short description of series [5]: Stability in human plasma assessed as time constant by measuring loss of intact peptide at 100 uM measured upto 24 hrs at 37 degC. Type of series: ADME, cell-free.
The target of series [6] is T3, Neuropeptide Y receptor type 5 (Homo sapiens, UniProt Q15761).
T3 sequence (Q15761 whole entry): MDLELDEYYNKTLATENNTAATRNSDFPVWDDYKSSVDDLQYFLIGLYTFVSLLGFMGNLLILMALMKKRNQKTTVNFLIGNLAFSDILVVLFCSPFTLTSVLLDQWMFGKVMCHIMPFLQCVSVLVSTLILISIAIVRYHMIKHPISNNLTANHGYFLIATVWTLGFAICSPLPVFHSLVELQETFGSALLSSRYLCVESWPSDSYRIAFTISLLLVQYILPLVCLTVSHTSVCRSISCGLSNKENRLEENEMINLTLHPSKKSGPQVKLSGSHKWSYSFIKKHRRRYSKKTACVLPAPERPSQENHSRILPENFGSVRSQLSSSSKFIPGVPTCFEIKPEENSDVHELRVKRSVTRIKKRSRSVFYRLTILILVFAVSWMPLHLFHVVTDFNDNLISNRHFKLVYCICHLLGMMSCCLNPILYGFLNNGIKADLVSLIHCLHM
Kind of series: Displacement of [3H]propionyl-pNPY from human Y5 receptor expressed in HEC-1B cells measured after 90 mins by MicroBeta plate counter based competition binding assay. Type of series: cell-based, HEC-1B cell line.

Series [7] in a line: Stability in human plasma assessed as half life time by measuring loss of intact peptide at 100 uM measured upto 24 hrs at 37 degC. Type of series: ADME, cell-free.
Series [8] has as its target T1, Neuropeptide Y receptor type 4. Nature of the series: Displacement of [3H]UR-KK200 from human Y4 receptor expressed in CHO-Gqi5-mtAQE cells measured after 90 mins by MicroBeta plate counter based competition binding assay. Type of series: cell-based.
Series [9] can be described thus: Stability in human plasma assessed as intact remained level in presence of ramipril ACE inhibitor measured over 4 hrs at 37 degC. Type of series: ADME, cell-free.

Starred links: 1 amine or outer side, 2 acyl side, 3 side chain; linkers in the order of their positions; H or OH if unused. Non-standard residues stand in square brackets, D forms with d. Residues, ends and D or L forms follow the SMILES beside them. X1 = O=C([C@@H]1C[C@@H](c2ccccc2)[C@@H]1CN[*:1])[*:2]; X2 = O=C([C@H]1C[C@H](c2ccccc2)[C@H]1CN[*:1])[*:2]

T1 sequence (P50391 whole entry): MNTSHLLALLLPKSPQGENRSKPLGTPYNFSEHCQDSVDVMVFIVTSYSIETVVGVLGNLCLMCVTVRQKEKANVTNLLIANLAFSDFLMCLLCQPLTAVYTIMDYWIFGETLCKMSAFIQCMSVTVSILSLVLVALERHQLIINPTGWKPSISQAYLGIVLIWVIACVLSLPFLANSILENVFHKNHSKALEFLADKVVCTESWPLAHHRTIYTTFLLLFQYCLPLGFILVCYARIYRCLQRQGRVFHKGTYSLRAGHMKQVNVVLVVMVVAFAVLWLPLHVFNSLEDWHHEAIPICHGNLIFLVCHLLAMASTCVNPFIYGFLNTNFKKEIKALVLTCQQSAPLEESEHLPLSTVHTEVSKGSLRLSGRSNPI

`CC(C)C[C@H](NC(=O)[C@@H](N)CCCNC(=N)N)C(=O)N[C@@H](CCCNC(=N)N)C(=O)N[C@@H](Cc1ccc(O)cc1)C(N)=O`: the Intrinsic activity in [1] came out at 54%.

What is called half-life is the time in which the quantity being followed falls by half. In the case of `CC(=O)N[C@@H](CCCNC(=N)N)C(=O)N[C@@H](Cc1ccc(O)cc1)C(=O)N[C@@H](CCCNC(=N)N)C(=O)N[C@@H](CC(C)C)C(=O)N[C@@H](CCCNC(=N)N)C(=O)N[C@@H](Cc1ccc(O)cc1)C(N)=O`, the EC50 in series [2] (read-out: EC50) is 110 nM. Also, the Ki in series [3] (read-out: Ki) was over 5000 nM; in series [3] (read-out: pKi (converted)), over 5010 nM; in [6] (read-out: Ki), over 5000 nM; in series [6] (read-out: pKi (converted)), over 5010 nM. Further, the half-life at 100 µM in series [4] is 1.4 h; in [7], 2 h. Also, in series [1], the Intrinsic activity worked out at 0.58. Also, the K in series [5] is 0.5 h⁻¹.

In the case of `CC(=O)N[C@@H](CCCNC(=N)N)C(=O)NC[C@@H]1[C@H](C(=O)N[C@@H](CCCNC(=N)N)C(=O)NC[C@@H]2[C@H](C(=O)N[C@@H](CCCNC(=N)N)C(=O)N[C@@H](Cc3ccc(O)cc3)C(N)=O)C[C@H]2c2ccccc2)C[C@H]1c1ccccc1` (Ac-R[X1]R[X1]RY-NH2), the Ki is 340 nM in [8] (read-out: Ki); 331 nM in series [8] (read-out: pKi (converted)); over 3000 nM in series [3] (read-out: Ki); over 3160 nM in series [3] (read-out: pKi (converted)); over 1000 nM in series [6] (hec-1b cell line, read-out: Ki); over 1000 nM in series [6] (read-out: pKi (converted)).

Turning to `CC(=O)N[C@@H](CCCNC(=N)N)C(=O)NC[C@H]1[C@@H](C(=O)N[C@@H](CCCNC(=N)N)C(=O)NC[C@H]2[C@@H](C(=O)N[C@@H](CCCNC(=N)N)C(=O)N[C@@H](Cc3ccc(O)cc3)C(N)=O)C[C@@H]2c2ccccc2)C[C@@H]1c1ccccc1` (Ac-R[X2]R[X2]RY-NH2), the Ki is 910 nM in series [8] (read-out: Ki); 891 nM in series [8] (read-out: pKi (converted)); over 3000 nM in series [3] (read-out: Ki); over 3160 nM in series [3] (read-out: pKi (converted)); over 1000 nM in [6] (hec-1b cell line, read-out: Ki); over 1000 nM in series [6] (read-out: pKi (converted)).

Take `CC(C)C[C@H](NC(=O)[C@@H]1CCCNC(=N)NC(=O)NCCCCNC(=O)CCC(=O)N[C@@H](CCCNC(=N)N)C(=O)N[C@@H](Cc2c[nH]c3ccccc23)C(=O)N1)C(=O)N[C@@H](CCCNC(=N)N)C(=O)N[C@@H](Cc1ccc(O)cc1)C(N)=O`: the Intrinsic activity in series [1] was 80%.

For `CC(=O)N[C@@H](CCCNC(=N)N)C(=O)NC[C@@H]1[C@H](C(=O)N[C@@H](CCCNC(=N)N)C(=O)N[C@@H](CC(C)C)C(=O)N[C@@H](CCCNC(=N)N)C(=O)N[C@@H](Cc2ccc(O)cc2)C(N)=O)C[C@H]1c1ccccc1` (Ac-R[X1]RLRY-NH2), the EC50 in [2] (read-out: EC50) is 20 nM; in [2] (read-out: pEC50 (converted)), 18.6 nM. Also, the Ki was 0.66 nM in series [8] (read-out: Ki); 0.646 nM in series [8] (read-out: pKi (converted)); over 1000 nM in [3] (cho, read-out: Ki); over 1000 nM in series [3] (read-out: pKi (converted)); over 3000 nM in series [6] (read-out: Ki); over 3160 nM in series [6] (read-out: pKi (converted)). Further, the values for the half-life at 100 µM in [4] and in [7] were 0.4 h and 0.55 h, respectively. The Intrinsic activity in series [1] came to 0.5. For the same molecule, the K in [5] was 1.83 h⁻¹. In addition, the Stability result in series [9] was “Stable”.

For `CC(C)C[C@H](NC(=O)[C@@H]1CCCNC(=N)NC(=O)NCCCCNC(=O)CCC(=O)N[C@@H](CCCNC(=N)N)C(=O)N[C@@H](Cc2ccc(O)cc2)C(=O)N1)C(=O)N[C@@H](CCCNC(=N)N)C(=O)N[C@@H](Cc1ccc(O)cc1)C(N)=O`, the EC50 in series [2] (hek293t, read-out: EC50) is 1.7 nM. Further, the Intrinsic activity in [1] stood at 68%.

On to `CC(=O)N[C@@H](CCCNC(=N)N)C(=O)NC[C@H]1[C@@H](C(=O)N[C@@H](CCCNC(=N)N)C(=O)N[C@@H](CC(C)C)C(=O)N[C@@H](CCCNC(=N)N)C(=O)N[C@@H](Cc2ccc(O)cc2)C(N)=O)C[C@@H]1c1ccccc1` (Ac-R[X2]RLRY-NH2), for which the values for the EC50 in series [2] (read-out: EC50) and in [2] (read-out: pEC50 (converted)) were 610 nM and 468 nM, respectively. The Ki was 12 nM in [8] (read-out: Ki); over 3000 nM in series [3] (read-out: Ki); over 3160 nM in series [3] (read-out: pKi (converted)); over 3000 nM in series [6] (read-out: Ki); over 3160 nM in series [6] (read-out: pKi (converted)). Also, the half-life at 100 µM in series [4] is 2.2 h; in series [7] it was 3.2 h. In [1], the Intrinsic activity worked out at 0.39. In [5], the K turned out to be 0.31 h⁻¹. In addition, the Stability result in series [9] is on record as “Stable”.

The values above are taken from ChEMBL document CHEMBL5331143, “Stereochemistry-Driven Interactions of α,γ-Peptide Ligands with the Neuropeptide Y Y4-Receptor” (J Med Chem, 2023).
